# Laboratory results published in patent US20220009914A1, “Analogs of Nitrofuran Antibiotics to Combat Resistance” (The Trustees of Indiana University, priority 2020, published 2022).
# Where two headings read alike, the source gives them in different places.
# What was measured:
# [1] = system: NEB 5-alpha Escherichia coli; assay: bacterial proliferation assay, E. coli; assay type: cell-based; conditions: read-out: Bacterial Proliferation EC50 E. coli
# Protocol: (§1) All compounds were evaluated for inhibiting the proliferation of E. coli and each of the ESKAPE bacteria. Results presented represent the averages of EC50 values obtained from at least four replicates. Evaluating compounds for inhibition of bacterial cell proliferation.
# (§2) Growth Media: E. coli were grown with LB medium and all ESKAPE bacteria were grown in Brain Heart Infusion (BHI) medium (Becton, Dickinson and Company), with all liquid cultures supplemented with 25 mg/L Ca^2+ and 12.5 mg/L Mg^2+ to mimic physiological free concentrations of these cations. A 10 mg/mL Ca^2+ stock solution was prepared by dissolving 1.84 g of CaCl2.2H2O in 50 mL of deionized water, and a 10 mg/mL Mg^2+ stock solution was prepared by dissolving 4.18 g of MgCl2.6H2O in 50 mL deionized water—filter sterilized using 0.2 μm cellulose-acetate filters. 2.5 mL of the sterile 10 mg/mL Ca^2+ stock and 1.25 mL of the sterile 10 mg/mL Mg^2+ stock solutions were added per 1 L of autoclaved LB or BHI media to obtain 25 mg/L Ca^2+ and 12.5 mg/L Mg^2+ ions, respectively.
# (§3) General Assay Protocol: Stock bacterial cultures were streaked onto LB or BHI agar plates and grown overnight at 37° C. Fresh aliquots of cation supplemented media were inoculated with single bacterial colonies and the cultures were grown overnight at 37° C. with shaking (240 rpm). The following morning, cultures were diluted 10-fold into fresh media and grown at 37° C. until bacteria had reached mid-log phase growth (OD600˜0.4-0.6). The cultures were then diluted into fresh media to achieve final OD600 readings of 0.017. Aliquots of these diluted cultures (30 μL) were added to clear, flat-bottom 384-well polystyrene plates that were previously stamped with 0.5 μL of test compounds in 20 μL of media (yielding initial OD600=0.01 bacterial cultures). All compounds were tested in dose-response with concentration ranges during the proliferation assays from 100 μM to 46 nM (3-fold dilution series). A second set of baseline control plates were prepared analogously, but without any bacteria added, to correct for possible compound absorbance and/or precipitation. […] Plates were then read at 600 nm using a Molecular Devices SpectraMax Plus384 microplate reader. […] Results presented represent the averages of EC50 values obtained from at least four replicates.
# (§4) Evaluating analogs for inhibiting the growth of E. coli and the ESKAPE bacteria. Analogs were initially tested for antibacterial efficacy against representative strains of antibiotic-sensitive E. coli and the ESKAPE bacteria. To determine compound efficacy, bacterial proliferation assays were carried out in liquid media culture supplemented with physiological concentrations of free calcium and magnesium cations. For these assays, bacterial cultures (OD600=0.01) were exposed to test compounds in 8-point, 3-fold dilution series (100 μM to 46 nM concentration range), in 384-well plates. After addition of compounds to cultures, the plates were sealed with Breathe-Easy gas permeable membranes and allowed to grow to mid-log phase (OD600˜0.4-0.6), whereupon final OD600 readings were taken to assess for bacterial growth and inhibition.
# native MDH = target: T1, native MDH (Sus scrofa, UniProt P00346); assay: native MDH enzymatic activity counter-screen; assay type: biochemical, pig
# T1 sequence (P00346 25-338): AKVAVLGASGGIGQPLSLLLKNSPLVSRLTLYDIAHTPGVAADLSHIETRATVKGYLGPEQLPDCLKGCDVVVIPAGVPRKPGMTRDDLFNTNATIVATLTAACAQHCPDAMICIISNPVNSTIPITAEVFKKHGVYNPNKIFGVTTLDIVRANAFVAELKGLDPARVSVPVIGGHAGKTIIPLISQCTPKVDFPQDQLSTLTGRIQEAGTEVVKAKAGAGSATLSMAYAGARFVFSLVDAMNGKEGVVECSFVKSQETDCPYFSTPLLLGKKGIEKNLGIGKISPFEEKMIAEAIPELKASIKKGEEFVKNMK
# Protocol: Reagent Preparations & Assay Protocol: This assay was performed as described above for the GroEL/ES-dMDH refolding assay; however, the assay protocol differed in the sequence of compound addition to the assay plates. The refolding reactions were allowed to proceed for 45 min at 37° C. in the absence of test compounds (complete refolding of MDH occurs), then quenched with the EDTA stock. Compounds were then pin-transferred into the plates after the EDTA quenching step; thus, compound effects are only possible by inhibiting the fully-refolded MDH reporter substrate. […] A340 nm measurements were recorded at 0.5 minutes (start point) and at successive time points until the amount of NADH consumed reached ˜90% (end point, generally between 20-35 minutes). Compounds were tested in 8-point, 3-fold dilution series (62.5 μM to 29 nM during the reporter reaction) in clear, flat-bottom 384-well microtiter plates. IC50 values for the MDH reporter enzyme were determined as described above. Results presented represent the averages of IC50 values obtained from at least five replicates.
# Evaluating analogs for inhibiting GroEL/ES-mediated substrate refolding functions. […] We first evaluated all test compounds in our standard GroEL/ES-mediated refolding assays that employ either malate dehydrogenase (MDH) or rhodanese (Rho) as the denatured substrate reporter enzymes. When denatured, these enzymes are efficiently folded by GroEL/ES in the absence of inhibitors, and thus act as reporters to determine the degree of inhibition against the bacterial chaperonin system. Inhibition was examined in the presence of these two orthogonal substrates in order to support that GroEL/ES inhibitors were on-target. To further support on-target effects against GroEL/ES, we counter-screened for inhibition of the native MDH and Rho enzymatic reporter reactions, where test compounds were added after the denatured MDH and Rho substrate enzymes were completely refolded by GroEL/ES.
# [2] = system: Klebsiella pneumoniae strain NCTC 9633 (ATCC #13883); assay: bacterial proliferation assay, K. pneumoniae; assay type: cell-based; conditions: Klebsiella pneumoniae, read-out: Bacterial Proliferation EC50 K. pneumoniae
# Protocol: as §1, §2, §3, §4
# [3] = without NfsB nitroreductase, compounds added after refolding, read-out: Native MDH Activity IC50
smiles,measurement,setting,value
"CCOc1ccc(S(=O)(=O)Nc2ccc(C(=O)N/N=C/c3ccc(O)c4ncccc34)cc2)cc1 [Compound 15, 4-ethoxy-N-(4-(2-((8-hydroxyquinolin-5-yl)methylene)hydrazine-1-carbonyl)phenyl)benzenesulfonamide]",EC50,[1]; Escherichia coli,> 100 µM
same,IC50,native MDH; [3],> 63 µM
same,EC50,[2],> 100 µM
"COc1ccc(C(=O)NN)cc1 [Compound 42, reference compound]",EC50,[1]; Escherichia coli,> 100 µM
same,IC50,native MDH; [3],> 63 µM
same,EC50,[2],> 100 µM
"COc1ccc(C(=O)N/N=C/c2ccc(O)c3ccccc23)cc1 [Compound 29, N′-((4-hydroxynaphthalen-1-yl)methylene)-4-methoxybenzohydrazide]",EC50,[1]; Escherichia coli,> 100 µM
same,IC50,native MDH; [3],> 63 µM
same,EC50,[2],> 100 µM
"COc1ccc(C(=O)N/N=C/c2ccco2)cc1 [Compound 39, N′-(furan-2-ylmethylene)-4-methoxybenzohydrazide]",EC50,[1]; Escherichia coli,> 100 µM
same,IC50,native MDH; [3],> 63 µM
same,EC50,[2],> 100 µM
"O=C1CN(/N=C/c2ccc(O)c3ncccc23)C(=O)N1 [Compound 2, 1-(((8-hydroxyquinolin-5-yl)methylene)amino)imidazolidine-2,4-dione]",EC50,[1]; Escherichia coli,80 µM
same,IC50,native MDH; [3],> 63 µM
same,EC50,[2],> 100 µM
"O=C(N/N=C/c1ccc([N+](=O)[O-])o1)c1cccc(Oc2ccccc2)c1 [Compound 24, N′-((5-nitrofuran-2-yl)methylene)-3-phenoxybenzohydrazide]",EC50,[1]; Escherichia coli,> 100 µM
same,IC50,native MDH; [3],> 63 µM
same,EC50,[2],> 100 µM
"O=C(N/N=C/c1ccc(O)c2ncccc12)c1cccc(Oc2ccccc2)c1 [Compound 11, N′-((8-hydroxyquinolin-5-yl)methylene)-3-phenoxybenzohydrazide]",EC50,[1]; Escherichia coli,> 100 µM
same,IC50,native MDH; [3],> 63 µM
same,EC50,[2],> 100 µM
"O=C(N/N=C/c1ccc(O)c2ccccc12)c1ccccc1 [Compound 30, N′-((4-hydroxynaphthalen-1-yl)methylene)benzohydrazide]",EC50,[1]; Escherichia coli,> 100 µM
same,IC50,native MDH; [3],> 63 µM
same,EC50,[2],> 100 µM
"O=C(N/N=C/c1ccc(O)c2ncccc12)c1ccc(Cl)s1 [Compound 4, 5-chloro-N′-((8-hydroxyquinolin-5-yl)methylene)thiophene-2-carbohydrazide]",EC50,[1]; Escherichia coli,> 100 µM
same,IC50,native MDH; [3],> 63 µM
same,EC50,[2],> 100 µM
"O=C(N/N=C/c1ccc(O)c2ncccc12)c1ccc(NS(=O)(=O)c2ccc(Br)cc2)cc1 [Compound 14, 4-bromo-N-(4-(2-((8-hydroxyquinolin-5-yl)methylene)hydrazine-1-carbonyl)phenyl)benzenesulfonamide]",EC50,[1]; Escherichia coli,≥ 100 µM
same,EC50,[1],> 100 µM
same,IC50,native MDH; [3],> 63 µM
same,EC50,[2],> 100 µM
"O=C(N/N=C/c1ccccc1)c1ccccc1 [Compound 38, N′-benzylidenebenzohydrazide]",EC50,[1]; Escherichia coli,> 100 µM
same,IC50,native MDH; [3],> 63 µM
same,EC50,[2],> 100 µM
"O=C(N/N=C/c1cccc2ncccc12)c1ccccc1 [Compound 32, N′-(quinolin-5-ylmethylene)benzohydrazide]",EC50,[1]; Escherichia coli,> 100 µM
same,IC50,native MDH; [3],> 63 µM
same,EC50,[2],> 100 µM
"COc1ccc(C(=O)N/N=C/c2ccc(O)cc2)cc1 [Compound 35, N′-(4-hydroxybenzylidene)-4-methoxybenzohydrazide]",EC50,[1]; Escherichia coli,> 100 µM
same,IC50,native MDH; [3],> 63 µM
same,EC50,[2],> 100 µM
"O=C(N/N=C/c1ccc([N+](=O)[O-])o1)c1ccccc1Oc1ccccc1 [Compound 23, N′-((5-nitrofuran-2-yl)methylene)-2-phenoxybenzohydrazide]",EC50,[1]; Escherichia coli,> 100 µM
same,IC50,native MDH; [3],> 63 µM
same,EC50,[2],> 100 µM
"O=C(N/N=C/c1ccc([N+](=O)[O-])o1)c1cccc2ccccc12 [Compound 22, N′-((5-nitrofuran-2-yl)methylene)-1-naphthohydrazide]",EC50,[1]; Escherichia coli,41 µM
same,IC50,native MDH; [3],> 63 µM
same,EC50,[2],> 100 µM
"O=C(N/N=C/c1ccc(O)c2ncccc12)c1ccncc1 [Compound 6, N′-((8-hydroxyquinolin-5-yl)methylene)isonicotinohydrazide]",EC50,[1]; Escherichia coli,79 µM
same,IC50,native MDH; [3],> 63 µM
same,EC50,[2],> 100 µM
"CCOc1ccc(S(=O)(=O)Nc2ccc(C(=O)N/N=C/c3ccc([N+](=O)[O-])o3)cc2)cc1 [Compound 28, 4-ethoxy-N-(4-(2-((5-nitrofuran-2-yl)methylene)hydrazine-1-carbonyl)phenyl)benzenesulfonamide]",EC50,[1]; Escherichia coli,> 100 µM
same,IC50,native MDH; [3],> 63 µM
same,EC50,[2],> 100 µM
"O=C(N/N=C/c1ccc([N+](=O)[O-])o1)c1ccc(NS(=O)(=O)c2ccc(Br)cc2)cc1 [Compound 27, 4-bromo-N-(4-(2-((5-nitrofuran-2-yl)methylene)hydrazine-1-carbonyl)phenyl)benzenesulfonamide]",EC50,[1]; Escherichia coli,> 100 µM
same,IC50,native MDH,> 63 µM
same,EC50,[2],> 100 µM
"O=Cc1ccc(O)c2ncccc12 [Compound 40, reference compound]",EC50,[1]; Escherichia coli,14 µM
same,IC50,native MDH; [3],> 63 µM
same,EC50,[2],15 µM
"COc1ccc(C(=O)N/N=C/c2cccc3ccccc23)cc1 [Compound 33, 4-methoxy-N′-(naphthalen-1-ylmethylene)benzohydrazide]",EC50,[1]; Escherichia coli,> 100 µM
same,IC50,native MDH; [3],> 63 µM
same,EC50,[2],> 100 µM
